From patent publication US20050164913A1, “Disinfecting composition” (Veckis Industries Ltd., priority 2002, published 2005)

Tests used:
Assay type in all cases: cell-based
[1] = system: Staphylococcus aureus (strain 906); assay: Antimicrobial activity of samples: death time of test-microorganism Staphylococcus aureus
E. coli (strain 1257) = assay: Antimicrobial activity of samples: death time of test-microorganism E. coli
[2] = system: Bacillus cereus (strain 96); assay: Antimicrobial activity of samples: death time of test-microorganism Bacillus cereus; conditions: sample concentration 5.0 %
[3] = statement of the text on Table 1

Row | Compound | Death time of test-microorganisms (min) Staphylococcus aureus ([1]; sample concentration 0.1 %) | Death time of test-microorganisms (min) Staphylococcus aureus ([1]; sample concentration 5.0 %) | Death time of test-microorganisms (min) E. coli (E. coli (strain 1257); sample concentration 0.1 %) | Death time of test-microorganisms (min) E. coli (E. coli (strain 1257); sample concentration 5.0 %) | Death time of test-microorganisms (min) Bacillus cereus [2] | Death time of test-microorganisms (min) Staphylococcus aureus ([1]; sample concentration 0.2 %) | Death time of test-microorganisms (min) Staphylococcus aureus ([1]; sample concentration 0.5 %) | Antibacterial action in words towards gram positive bacteria (vegetative forms) [1, 3] | Death time of test-microorganisms (min) E. coli (E. coli (strain 1257); sample concentration 0.2 %) | Death time of test-microorganisms (min) E. coli (E. coli (strain 1257); sample concentration 0.5 %) | Antibacterial action in words towards gram negative bacteria (vegetative forms) (E. coli (strain 1257); [3])
1 | O=C(O)CN(CCN(CC(=O)O)CC(=O)O)CC(=O)O.[Zn] [Ethylenediaminotetraacetate zinc complex] | >30 min | >30 min | >30 min | >30 min | – | – | – | – | – | – | –
2 | Monoglycinatecopper chloride complex | >30 min | >30 min | >30 min | – | >360 min | >30 min | >30 min | high enough efficacy | 30 min | 15 min | high enough efficacy
